No end group written: not given here.
Columns and labels:
[1] = test system: spontaneously hypertensive rats (SHRs); experiment: BP measurement after single oral administration in SHR (tail-cuff); format: in vivo, rat; settings: single intragastric administration, 0-8 h
Protocol: (§1) Thirty 10-week-old male spontaneously hypertensive rats (SHRs) and five normal male rats of the same age were used for the experiment. The rats were placed at 25 °C ± 1 °C, relative humidity of 45–55% and a light/dark cycle for 12 h. SHRs were randomly divided into 6 groups after one week of adaptation, while rats in the normal group (NG) were used as controls. The administration was continued for 28 days.
(§2) Rats in the normal and SHR groups were given 1.0 mL of 0.9% saline per day, while the positive control group was given captopril (10 mg/kg body weight) per day. The ACE inhibitory peptides treatment groups’ low and high doses were fed orally with 5 and 15 mg/kg (based on their body weight) by dissolving the peptides in 1.0 mL of 0.9% normal saline. The rats’ BP was measured by the tail-cuff method. The systolic blood pressure (SBP), diastolic blood pressure (DBP), and heart rate of all rats were measured after a single oral administration (0–8 h) and weekly (0–4 weeks). All measurements were repeated at least three times so the average value could be calculated.

[2] = test system: serum ET-1, NO, ACE, Ang II, AGT, ALD; experiment: Serum ET-1, NO, ACE, Ang II, AGT and ALD in SHR (ELISA / NO kit); format: in vivo, rat; settings: 28 days oral administration; for serum ACE level of the SHR control group compared with the treated group / serum AGT level of the SHR control group compared with the treated group / serum ALD level of the SHR control group compared with the treated group / serum AngII level of the SHR control group compared with the treated group: p < 0.05
From the text: (§3) The Grain, Oil and Protein Engineering Laboratory of Shaanxi Normal University (Xi’an, China) provided the defatted walnut meal. ACE (from rabbit lung) and hippuryl-histidyl-leucine (HHL) were purchased from Sigma Co., St. Louis, MO, USA. Pepsin (3 × 10^3 U/g) was obtained from Solarbio Science & Technology, Co., Ltd. (Beijing, China). High-performance liquid chromatography grade acetonitrile and trifluoroacetic acid were purchased from Fischer Scientific Co. (Waltham, MA, USA). The enzyme-linked immunosorbent assay kit for the detection of ACE, angiotensinogen (AGT), aldosterone (ALD), and Endothelin-1(ET-1) was purchased from Jiangsu Jingmei Biotechnology Co., Ltd. (YanCheng, China). The enzyme-linked immunosorbent assay kit for the detection of Ang II was obtained from Shanghai Kexing Biotechnology Co., Ltd., (Shanghai, China). and the nitric oxide (NO) detection kit was a product of Nanjing Jiancheng Institute of Biological Engineering (Nanjing, China), and other chemical reagents used in the experiment were of analytical grade.
The upper serum samples were obtained by centrifugation at 3000× g at 4 °C for 10 min after the blood was taken from the abdominal aorta of all rats. The samples were stored at −20 °C, and the serum expression was detected using the ELISA kit (double antibody sandwich enzyme-linked immunosorbent assay).

[3] = test system: spontaneously hypertensive rats (SHRs); experiment: BP measurement during four weeks of oral administration in SHR (tail-cuff); format: in vivo, rat; settings: daily oral; for SBP compared with the SHRs group after one week of oral administration: peptides 5 and 15 mg/kg, p < 0.01
Protocol: as §1, §2

[4] = biological target: T1, ACE (from rabbit lung) (Oryctolagus cuniculus, UniProt P12822); experiment: ACE inhibitory activity (HHL substrate, absorbance); format: biochemical
T1 construct: ACE (from rabbit lung) and hippuryl-histidyl-leucine (HHL) were purchased from Sigma Co; purchased Sigma Co., St. Louis, MO, USA; host or cells: rabbit lung (tissue-derived)
T1 sequence (P12822 34-1310): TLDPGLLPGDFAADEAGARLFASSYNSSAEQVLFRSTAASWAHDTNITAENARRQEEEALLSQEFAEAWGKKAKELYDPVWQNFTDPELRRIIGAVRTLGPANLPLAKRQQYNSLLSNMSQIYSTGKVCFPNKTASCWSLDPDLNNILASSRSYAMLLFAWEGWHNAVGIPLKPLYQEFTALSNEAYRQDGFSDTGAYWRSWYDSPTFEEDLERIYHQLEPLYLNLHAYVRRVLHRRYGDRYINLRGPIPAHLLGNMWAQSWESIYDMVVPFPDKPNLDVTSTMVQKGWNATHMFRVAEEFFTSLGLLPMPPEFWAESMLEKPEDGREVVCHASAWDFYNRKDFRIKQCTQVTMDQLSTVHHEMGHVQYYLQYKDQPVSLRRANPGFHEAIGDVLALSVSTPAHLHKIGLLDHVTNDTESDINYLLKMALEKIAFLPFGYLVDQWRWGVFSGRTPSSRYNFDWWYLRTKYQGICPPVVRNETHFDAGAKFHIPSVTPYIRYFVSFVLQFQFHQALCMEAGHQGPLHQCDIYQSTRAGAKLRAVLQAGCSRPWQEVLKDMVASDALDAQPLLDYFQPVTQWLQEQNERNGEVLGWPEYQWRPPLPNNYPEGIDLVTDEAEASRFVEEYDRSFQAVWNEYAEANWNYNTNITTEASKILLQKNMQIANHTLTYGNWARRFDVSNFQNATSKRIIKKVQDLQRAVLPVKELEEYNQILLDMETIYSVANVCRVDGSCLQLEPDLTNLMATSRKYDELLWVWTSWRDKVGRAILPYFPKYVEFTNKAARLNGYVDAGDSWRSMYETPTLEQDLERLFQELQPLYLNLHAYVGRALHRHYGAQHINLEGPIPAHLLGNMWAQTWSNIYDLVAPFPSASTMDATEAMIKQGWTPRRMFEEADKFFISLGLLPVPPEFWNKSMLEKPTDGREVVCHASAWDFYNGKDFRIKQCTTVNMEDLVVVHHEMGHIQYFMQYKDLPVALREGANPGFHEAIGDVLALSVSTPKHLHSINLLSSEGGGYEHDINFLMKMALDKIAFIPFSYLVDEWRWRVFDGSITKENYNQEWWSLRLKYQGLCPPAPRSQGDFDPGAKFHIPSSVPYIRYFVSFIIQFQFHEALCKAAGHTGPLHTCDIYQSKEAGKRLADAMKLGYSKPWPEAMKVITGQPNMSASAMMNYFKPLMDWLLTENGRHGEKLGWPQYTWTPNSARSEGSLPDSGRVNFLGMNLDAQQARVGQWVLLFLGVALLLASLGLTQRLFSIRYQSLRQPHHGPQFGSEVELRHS
From the text: as §3
Following a previous method reported by Zheng et al. (2017), we could determine the ACE inhibitory activity of glutelin-1 hydrolysate, separated fractions, active peptides, and all the other samples with 1.0 mg/mL Captopril as a positive control. The IC50 value (the concentrationof the inhibitory peptide (μM) had to inhibit 50% of the ACE activity) was calculated by linear regression of the curve.
The following formula was used to calculate the ACE inhibition rate (%): ACE inhibition rate(%)=(1-As/Ac)×100 where Ac represents ACE solution’s absorbance without an inhibitor and As represents the mixture containing samples.

[5] = test system: pepsin and trypsin; experiment: GI digestion stability of the synthesized peptides (pepsin, trypsin), read out as ACE inhibitory activity; format: in vitro ADME; settings: pepsin 1 mg/mL pH 2.0 37 °C 3 h, or trypsin 1.0 mg/mL pH 8.0 37 °C 4 h
Protocol: We conducted a GI digestion stability analysis of the synthesized peptides according to the method proposed by Khueychai et al. (2018) with slight modifications. Briefly, the peptide solution was incubated with 1 mg/mL of pepsin solution (0.1 M HCl, pH 2.0) at 37 °C for 3 h. Subsequently, the pH value of the mixed solution was adjusted to 8.0 with 1.0 M NaOH, and 1.0 mg/mL of trypsin added and incubated at 37 °C for 4 h. Finally, the ACE inhibitory activity of the reaction solution could be determined after boiling for 10 min, cooling to room temperature, and centrifuging for 15 min at 10,000× g.

[6] = Temperature, pH, metal ion, sugar and salt treatment stability of the synthesized peptides, read out as ACE inhibition rate; format: physicochemical; settings: 1.0 mg/mL peptide
Protocol: The effect of temperature, pH, metal ion, sugar, and salt treatments on the stabilities of two synthesized peptides, were determined by incubating 1.0 mg/mL of VERGRRITSV and FVIEPNITPA at 20 °C, 40 °C, 60 °C, 80 °C, and 100 °C for 2 h; 37 °C for 2 h at pH 2, 4, 6, 8, and 10; with 100 μg/mL of KCl, CaCl2, ZnSO4, MgSO4, and FeSO4 solution at 37 °C for 2 h; with glucose solutions of 2%, 4%, 8%, and 12% at 37 °C for 30 min; with NaCl solutions of 2%, 4%, 8%, and 12% at 37 °C for 30 min, respectively. The ACE inhibition rate was measured immediately after incubation.

[7] = captopril 10 mg/kg, peptides low dose 5 mg/kg, decline reached a maximum in the second week
[8] = NaCl solutions 2-12%, 37 °C for 30 min, read-out ACE inhibition rate

## C[C@H](CS)C(=O)N1CCC[C@H]1C(=O)O [captopril, reference compound]
[1]; captopril 10 mg/kg
  maximal reduction in SBP: 29.5 mmHg
[2]; ELISA
  serum ACE level of the SHR control group compared with the treated group: significantly higher
  serum AGT level of the SHR control group compared with the treated group: significantly higher
  serum ALD level of the SHR control group compared with the treated group: significantly higher
  serum AngII level of the SHR control group compared with the treated group: significantly higher
[3]; captopril 10 mg/kg
  SBP compared with the SHRs group after one week of oral administration: significantly lower
[3]; [7]
  DBP course during continuous administration: began to decrease after one week of continuous administration

## FVIEPNITPA [FVIEPNITPA, Phe-Val-Ile-Glu-Pro-Asn-Ile-Thr-Pro-Ala]
[1]; high dose 15 mg/kg
  maximal reduction in SBP: 30.4 mmHg
[1]; low dose 5 mg/kg
  maximal reduction in SBP: 23.0 mmHg
[2]; ELISA, SHR control significantly higher than the other groups (p < 0.01)
  serum ET-1 levels: low ET-1 levels
[2]; ELISA
  serum ACE level of the SHR control group compared with the treated group: significantly higher
  serum AGT level of the SHR control group compared with the treated group: significantly higher
  serum ALD level of the SHR control group compared with the treated group: significantly higher
  serum AngII level of the SHR control group compared with the treated group: significantly higher
[2]; NO detection kit, SHR control significantly lower than treated groups (p < 0.05)
  serum NO content: equivalent to that of the captopril group
[3]; captopril 10 mg/kg
  SBP compared with the SHRs group after one week of oral administration: significantly lower
[3]; [7]
  DBP course during continuous administration: began to decrease after one week of continuous administration
[3]; high dose 15 mg/kg
  DBP course during continuous administration: began to decrease in the second week after administration
[4]; calculated by linear regression of the curve, read-out: IC50 on angiotensin converting enzyme (ACE)
  IC50: 6.36 µM
[4]; fractions from Sephadex G-15 (1.0 mg/mL) or RP-HPLC, control glutelin-1 hydrolysate before separation
  ACE inhibitory activity compared among fractions or with the glutelin-1 hydrolysate (in words): highest ACE inhibitory activity
[5]
  ACE inhibitory activity under pepsin or trypsin digestion: could still maintain high ACE inhibitory activity
[6]; 100 μg/mL KCl, CaCl2, MgSO4, 37 °C for 2 h, read-out ACE inhibition rate
  stability of ACE inhibitory activity with metal ions K+, Ca2+ and Mg2+: showed stability
[6]; 20 °C-60 °C for 2 h, read-out ACE inhibition rate
  ACE inhibitory activity after temperature treatment: did not change much
[6]; 37 °C for 2 h at pH 2, 4, 6, 8 and 10, read-out ACE inhibition rate
  effect of change of pH value on ACE inhibitory activity: no significant effect
[6]; 80 °C for 2 h
  ACE inhibition rate after temperature treatment: above 80%
[6]; 100 °C for 2 h
  ACE inhibition rate after temperature treatment: about 70%
[6]; [8]
  stability of ACE inhibitory activity under high-concentration salt conditions: less stable
  stability of ACE inhibitory activity under low-concentration salt conditions: good stability
[6]; glucose solutions 2-12%, 37 °C for 30 min, low concentrations, read-out ACE inhibition rate
  stability of ACE inhibitory activity at low glucose concentration: showed stability
